In the supplement of paper PMC13380429:

Key:
Conditions in all cases: 72 h
Caco-2 [1] = assay: cell viability relative to DMSO; higher = less toxic
Calu-3 [2] = assay: as above
HepG2 [3] = assay: as above
Vero E6 [4] = assay: as above
Caco-2 [5] = assay: relative viability EC50 (midpoint between 100% and the lowest measured viability); higher = less toxic
Calu-3 [6] = assay: as above
HepG2 [7] = assay: as above
Vero E6 [8] = assay: as above
Caco-2 [9] = assay: drug sensitivity score (DSS) for viability; higher = more toxic; extreme values may be limits of the assay
Calu-3 [10] = assay: as above
HepG2 [11] = assay: as above
Vero E6 [12] = assay: as above
U2OS [13] = assay: cell viability relative to DMSO; higher = less toxic
U2OS [14] = assay: relative viability EC50 (midpoint between 100% and the lowest measured viability); higher = less toxic
U2OS [15] = assay: drug sensitivity score (DSS) for viability; higher = more toxic; extreme values may be limits of the assay

Row | SMILES | cell viability (Caco-2 [1]; 1 nM) [%] | cell viability (Caco-2 [1]; 10 nM) [%] | cell viability (Caco-2 [1]; 100 nM) [%] | cell viability (Caco-2 [1]; 1000 nM) [%] | cell viability (Caco-2 [1]; 10000 nM) [%] | cell viability (Calu-3 [2]; 1 nM) [%] | cell viability (Calu-3 [2]; 10 nM) [%] | cell viability (Calu-3 [2]; 100 nM) [%] | cell viability (Calu-3 [2]; 1000 nM) [%] | cell viability (Calu-3 [2]; 10000 nM) [%] | cell viability (HepG2 [3]; 1 nM) [%] | cell viability (HepG2 [3]; 10 nM) [%] | cell viability (HepG2 [3]; 100 nM) [%] | cell viability (HepG2 [3]; 1000 nM) [%] | cell viability (HepG2 [3]; 10000 nM) [%] | cell viability (Vero E6 [4]; 1 nM) [%] | cell viability (Vero E6 [4]; 10 nM) [%] | cell viability (Vero E6 [4]; 100 nM) [%] | cell viability (Vero E6 [4]; 1000 nM) [%] | cell viability (Vero E6 [4]; 10000 nM) [%] | relative viability EC50 (Caco-2 [5]) [µM] | relative viability EC50 (Calu-3 [6]) [µM] | relative viability EC50 (HepG2 [7]) [µM] | relative viability EC50 (Vero E6 [8]) [µM] | drug sensitivity score (Caco-2 [9]) | drug sensitivity score (Calu-3 [10]) | drug sensitivity score (HepG2 [11]) | drug sensitivity score (Vero E6 [12]) | cell viability (U2OS [13]; 1 nM) [%] | cell viability (U2OS [13]; 10 nM) [%] | cell viability (U2OS [13]; 100 nM) [%] | cell viability (U2OS [13]; 1000 nM) [%] | cell viability (U2OS [13]; 10000 nM) [%] | relative viability EC50 (U2OS [14]) [µM] | drug sensitivity score (U2OS [15])
1 | O=c1cc(-c2ccc(O)cc2)oc2cc(O)cc(O)c12 [apigenin] | 93.9 | 94.2 | 105 | 94.8 | 90.4 | 104 | 103 | 101 | 99.3 | 94.7 | 92.8 | 105 | 97.7 | 102 | 94 | 101 | 101 | 101 | 95.2 | 92 | > 10 | > 10 | > 10 | > 10 | 0 | 0 | 0 | 0 | – | – | – | – | – | – | –
2 | CCOc1nc2cccc(C(=O)OCc3oc(=O)oc3C)c2n1Cc1ccc(-c2ccccc2-c2noc(=O)[nH]2)cc1 [azilsartan-medoxomil] | 107 | 86.4 | 83.3 | 107 | 85.1 | 104 | 102 | 96.3 | 101 | 93.1 | – | – | – | – | – | 113 | 107 | 107 | 99.4 | 101 | > 10 | > 10 | – | > 10 | 0.1 | 0 | – | 0 | 98.7 | 101 | 94.7 | 97.3 | 92.8 | > 10 | 0
3 | COc1ccccc1Oc1c(NS(=O)(=O)c2ccc(C(C)(C)C)cc2)nc(-c2ncccn2)nc1OCCO [bosentan] | 106 | 98.4 | 103 | 96.6 | 81.1 | 102 | 94.2 | 99.1 | 114 | 102 | – | – | – | – | – | 95.1 | 100 | 94.3 | 93.9 | 85.3 | > 10 | > 10 | – | > 10 | 0.9 | 0 | – | 0.2 | 98 | 102 | 98 | 99.9 | 91 | > 10 | 0
4 | N#Cc1c(N)nc(SCc2csc(-c3ccc(Cl)cc3)n2)c(C#N)c1-c1ccc(OCCO)cc1 [capadenoson] | 102 | 94.6 | 98.8 | 104 | 74.8 | 98 | 102 | 104 | 104 | 95.6 | 89 | 108 | 95.3 | 105 | 107 | 93 | 98.5 | 95.6 | 102 | 102 | – | > 10 | > 10 | > 10 | 0.8 | 0 | 0 | 0 | 99.2 | 95.2 | 101 | 100 | 79.3 | > 10 | 0.6
5 | N=C(N)NCCC[C@@H](NC(=O)[C@@H]1CCCN1C(=O)[C@@H]1CSSCCC(=O)N[C@@H](Cc2ccc(O)cc2)C(=O)N[C@@H](Cc2ccccc2)C(=O)N[C@@H](CCC(N)=O)C(=O)N[C@@H](CC(N)=O)C(=O)N1)C(=O)NCC(N)=O [desmopressin-acetate] | – | – | – | – | – | 101 | 92.7 | 110 | 93.4 | 102 | 106 | 96.2 | 110 | 107 | 106 | 105 | 108 | 106 | 101 | 99.4 | – | > 10 | > 10 | > 10 | – | 0 | 0 | 0 | 97.5 | 93.8 | 96.6 | 96.3 | 100 | > 10 | 0
6 | CC(C)=CCC[C@](C)(O)[C@H]1CC[C@]2(C)[C@@H]1[C@H](O)C[C@@H]1[C@@]3(C)CC[C@H](O)C(C)(C)[C@@H]3[C@@H](O)C[C@]12C [hemomex-s] | 113 | 106 | 103 | 111 | 96.9 | 105 | 109 | 112 | 105 | 93.4 | – | – | – | – | – | 96.1 | 93.9 | 96.6 | 98.8 | 99.2 | > 10 | > 10 | – | > 10 | 0 | 0 | – | 0 | 97.4 | 101 | 99.8 | 101 | 100 | > 10 | 0
7 | COc1ccc(CCN)cc1OC [homoveratrylamine] | 89.4 | 77.6 | 110 | 79.4 | 73 | 100 | 85.6 | 113 | 98.2 | 95.7 | 110 | 103 | 98.2 | 108 | 115 | 108 | 106 | 94.9 | 97.5 | 96.4 | – | > 10 | > 10 | > 10 | 2.9 | 0 | 0 | 0 | 94.6 | 96.1 | 97.6 | 97.3 | 101 | > 10 | 0
8 | O=c1[nH]c(=O)n([C@H]2C[C@H](O)[C@@H](CO)O2)cc1I [idoxuridine] | 101 | 101 | 94 | 105 | 95.9 | 106 | 96.6 | 110 | 93 | 96.5 | 101 | 104 | 95.8 | 94 | 62.5 | 99.1 | 104 | 97.8 | 99.8 | 84.5 | > 10 | > 10 | – | > 10 | 0 | 0 | 2.8 | 0.3 | 98.4 | 103 | 101 | 106 | 99.6 | > 10 | 0
9 | CNC(C)(C)Cc1ccccc1 [mephentermine] | 97.1 | 105 | 104 | 106 | 96.8 | 101 | 97.4 | 95.5 | 102 | 99.8 | 102 | 99.6 | 106 | 104 | 91.4 | 108 | 97.3 | 97 | 105 | 104 | > 10 | > 10 | > 10 | > 10 | 0 | 0 | 0 | 0 | – | – | – | – | – | – | –
10 | Clc1ccc(COC(Cn2ccnc2)c2ccc(Cl)cc2Cl)c(Cl)c1 (centres undefined) [miconazole] | 96.3 | 98 | 96.2 | 85.9 | 72.1 | 101 | 98.8 | 102 | 91.6 | 87.1 | 97.6 | 109 | 103 | 96.2 | 75.5 | 106 | 106 | 101 | 102 | 97.2 | – | > 10 | > 10 | > 10 | 2.4 | 0.5 | 1.5 | 0 | 95.5 | 94.9 | 102 | 94.2 | 92.4 | > 10 | 0
11 | CN(c1nccc(=O)[nH]1)C1CCN(c2nc3ccccc3n2Cc2ccc(F)cc2)CC1 [mizolastine] | 89.5 | 99.9 | 98 | 100 | 98.3 | 103 | 104 | 99.5 | 102 | 108 | – | – | – | – | – | 97.5 | 101 | 98.6 | 97.8 | 107 | > 10 | > 10 | – | > 10 | 0 | 0 | – | 0 | 101 | 98.5 | 101 | 103 | 102 | > 10 | 0
12 | CC1=C(/C=C/C(C)=C/C=C/C(C)=C/C=O)C(C)(C)CCC1 [retinaldehyde] | 100 | 104 | 89.5 | 97.8 | 90.4 | 98.9 | 108 | 104 | 88.8 | 87.4 | – | – | – | – | – | 99.2 | 95.1 | 95.2 | 95.3 | 99.9 | > 10 | > 10 | – | > 10 | 0 | 0.6 | – | 0 | 104 | 107 | 101 | 99.4 | 92.9 | > 10 | 0
13 | Oc1c(I)cc(I)c(O)c1I [riodoxol] | 94.9 | 93.8 | 98.1 | 93.5 | 104 | 103 | 95.1 | 103 | 104 | 98.5 | 97.2 | 91.1 | 101 | 93.2 | 96.9 | 101 | 99.3 | 99.6 | 101 | 94.6 | > 10 | > 10 | > 10 | > 10 | 0 | 0 | 0 | 0 | – | – | – | – | – | – | –
14 | CCCN(CCC)CCc1cccc2c1CC(=O)N2 [ropinirole] | 97.8 | 108 | 100 | 104 | 105 | 92.9 | 106 | 99.7 | 89.8 | 103 | 99.1 | 100 | 87.7 | 103 | 104 | 100 | 101 | 101 | 99.3 | 96.3 | > 10 | > 10 | > 10 | > 10 | 0 | 0 | 0 | 0 | – | – | – | – | – | – | –
15 | Cc1c(C(=O)Nc2ccc(N3C[C@@H](C)O[C@@H](C)C3)nc2)cccc1-c1ccc(OC(F)(F)F)cc1 [sonidegib] | 102 | 98.8 | 95.7 | 98 | 81.4 | 109 | 98.4 | 92.7 | 97.9 | 97.2 | 104 | 96.8 | 99.7 | 98.9 | 71.3 | 105 | 109 | 102 | 104 | 84 | > 10 | > 10 | – | > 10 | 0.7 | 0 | 1.4 | 0.2 | 99.5 | 94.1 | 102 | 96.5 | 87.3 | > 10 | 0.3
16 | Cn1nnc(-c2ccc(-c3ccc(N4C[C@H](CO)OC4=O)cc3F)cn2)n1 [tedizolid] | 113 | 106 | 94.2 | 93.3 | 82.2 | 103 | 95.4 | 99.6 | 108 | 106 | 111 | 95.4 | 99.5 | 76.9 | 55.7 | 94 | 99.6 | 98.3 | 101 | 92.9 | > 10 | > 10 | – | > 10 | 0.6 | 0 | 5.1 | 0 | 101 | 102 | 96.7 | 96.3 | 94.1 | > 10 | 0
